Values quoted from earlier work in US8603436B2, “Methods and compositions for targeted drug delivery” (priority 2000, dated 2013).
Where two headings read alike, the source gives them in different places. Square brackets hold non-standard residues; d marks the D form. Peptide text beside a SMILES is read from it. * marks the point of attachment. X1 = NCCCC[C@H](NC(=O)[C@H](CS)NC(=O)[C@H](CCCCN)NC(=O)[C@@H](N)CNC(=O)C*)C(N)=O; NMeF = CN[C@@H](Cc1ccccc1)C(=O)O; hCys = N[C@@H](CCS)C(=O)O

Tests used:
[1] = test system: tumor; conditions: tumor models and individual patients
[2] = test system: glioblastoma cells; conditions: in vitro
[3] = test system: ssr subtypes present in rat pancreas carcinoma membranes; conditions: free (unlabeled) peptide
[4] = test system: tumor; conditions: in vivo
[5] = test system: lysosomes

With `N[C@@H](Cc1ccc(B(O)O)cc1)C(=O)O` [BPA, p-boronophenylalanine] as the compound, how does the tumor enrichment factor [1] read?
The tumor enrichment factor was at most 3.

And the “concentration in lysosomes relative to cytosolic concentration” value [2]?
Its value is 100 fold lower.

And the “concentration in microsomes relative to cytosolic concentration” value [2]?
Its value is 125 fold lower.

What about the “concentration in nuclei relative to cytosolic concentration” value [2] of the same compound?
Its value is 80 fold lower.

What about the “time to maximum uptake into whole glioblastoma cells” value [2] of the same compound?
Its value is 1 h.

And the cytosolic concentration ([2]; at maximum uptake)?
Its cytosolic concentration is 250 ng per million of glioma cells.

Which “apparent affinity of the free peptide compared with octreotide” value [3] does the source give for `CC(C)[C@@H]1NC(=O)[C@H](CCCCN)NC(=O)[C@@H](Cc2c[nH]c3ccccc23)NC(=O)[C@H](Cc2ccc(O)cc2)NC(=O)[C@H](Cc2ccccc2)N(C)C(=O)[C@H](CCSCC(=O)NC[C@H](N)C(=O)N[C@@H](CCCCN)C(=O)N[C@@H](CS)C(=O)N[C@@H](CCCCN)C(N)=O)NC1=O` [depreotide] (cyclo([hCys](X1)[NMeF]Y[dW]KV)) here?
Its value is “one order of magnitude lower”.

With “beta-5-o-carboranyl-2′-deoxyuridine [D-CDU]” as the compound, how does the tumor enrichment factor [4] read?
Its tumor enrichment factor is about 100.

For boronated protoporphyrin [BOPP], which subcellular accumulation [5] is on record?
Its subcellular accumulation is “accumulate in lysosomes, but not in mitochondria or the nucleus”.
